“And” between values parts separate entries of the source, which are not always exact repeats. Equal values may be shown once. Inconclusive results and toxic doses are left out. How the source made its calls: active means survival T/C of 150% or more; inactive means T/C below 125% in these data.
System: BDF1 mice, P288 leukemia ip, survival T/C
Assay: NCI In Vivo Anticancer Drug Screen. Data for tumor model P288 Lymphocytic Leukemia (intraperitoneal) in B6D2F1 (BDF1) mice
Conditions: higher = longer survival
Protocol: The antitumor activity of compounds was measured in mice bearing transplantable tumors. Survival or tumor size were measured and the results are expressed as the measurement made in the treated group (T) divided by the measurement made in the vehicle treated control group (C). The tumor model used in this assay is P288 Lymphocytic Leukemia (intraperitoneal) in B6D2F1 (BDF1) mice

[1] = endpoint: survival time, mean or median, dose: 125.0 mg/kg/injection, schedule: Q01DX Z (ip), vehicle: carboxymethylcellulose (CMC)
[2] = endpoint: survival time, mean or median, dose: 5.0 mg/kg/injection, schedule: Q01DX010 (ip), vehicle: saline
[3] = endpoint: survival time, mean or median, dose: 10.0 mg/kg/injection, schedule: Q01DX010 (ip), vehicle: saline
[4] = endpoint: survival time, mean or median, dose: 20.0 mg/kg/injection, schedule: Q01DX010 (ip), vehicle: saline
[5] = endpoint: survival time, mean or median, dose: 40.0 mg/kg/injection, schedule: Q01DX010 (ip), vehicle: saline
[6] = endpoint: survival time, mean or median, dose: 500.0 mg/kg/injection, schedule: Q01DX010 (ip), vehicle: saline

Measured: T/C

C[C@]12CCC(=O)C=C1CC[C@@H]1[C@@H]2CC[C@@]2(C)[C@H]1CC[C@]2(C)O
inactive: endpoint: survival time, mean or median, dose: 16.0 mg/kg/injection, schedule: Q01DX Z (sc), vehicle: steriod suspending solution 104 % of control | endpoint: survival time, mean or median, dose: 31.0 mg/kg/injection, schedule: Q01DX Z (sc), vehicle: steriod suspending solution 108 % of control | endpoint: survival time, mean or median, dose: 62.5 mg/kg/injection, schedule: Q01DX Z (sc), vehicle: steriod suspending solution 110 % of control and 116 % of control | endpoint: survival time, mean or median, dose: 125.0 mg/kg/injection, schedule: Q01DX Z (sc), vehicle: steriod suspending solution 100 % of control | endpoint: survival time, mean or median, dose: 250.0 mg/kg/injection, schedule: Q01DX Z (sc), vehicle: steriod suspending solution 100 % of control | endpoint: survival time, mean or median, dose: 500.0 mg/kg/injection, schedule: Q01DX Z (sc), vehicle: steriod suspending solution 101 % of control

CN(C)c1nc(N(C)C)nc(N(C)C)n1
inactive: endpoint: survival time, mean or median, dose: 75.0 mg/kg/injection, schedule: Q01DX010 (ip), vehicle: saline 90 % of control | [1] 97 % of control

Cc1cc(N(CCCl)CCCl)ccc1N=Nc1ccccc1C(=O)O
inactive: endpoint: survival time, mean or median, dose: 0.45 mg/kg/injection, schedule: Q01DX Z (ip), vehicle: carboxymethylcellulose (CMC) 108 % of control | endpoint: survival time, mean or median, dose: 0.9 mg/kg/injection, schedule: Q01DX Z (ip), vehicle: carboxymethylcellulose (CMC) 105 % of control | endpoint: survival time, mean or median, dose: 1.8 mg/kg/injection, schedule: Q01DX Z (ip), vehicle: carboxymethylcellulose (CMC) 104 % of control | endpoint: survival time, mean or median, dose: 3.75 mg/kg/injection, schedule: Q01DX Z (ip), vehicle: carboxymethylcellulose (CMC) 101 % of control | [2] 88 % of control and 90 % of control | endpoint: survival time, mean or median, dose: 7.5 mg/kg/injection, schedule: Q01DX Z (ip), vehicle: carboxymethylcellulose (CMC) 108 % of control | [3] 90 % of control and 94 % of control | [4] 105 % of control and 90 % of control | [5] 94 % of control

N[C@@H](Cc1ccc(N(CCCl)CCCl)cc1)C(=O)O
active: endpoint: survival time, mean or median, dose: 0.62 mg/kg/injection, schedule: Q01DX Z (ip), vehicle: saline 151 % of control | endpoint: survival time, mean or median, dose: 1.25 mg/kg/injection, schedule: Q01DX Z (ip), vehicle: saline 181 % of control and 196 % of control | endpoint: survival time, mean or median, dose: 2.5 mg/kg/injection, schedule: Q01DX Z (ip), vehicle: saline 172 % of control | endpoint: survival time, mean or median, dose: 5.0 mg/kg/injection, schedule: Q01DX Z (ip), vehicle: saline 207 % of control
inactive: endpoint: survival time, mean or median, dose: 10.0 mg/kg/injection, schedule: Q01DX Z (ip), vehicle: saline 108 % of control and 113 % of control

CN(C)c1ccc(Nc2c3ccccc3nc3ccccc23)cc1
inactive: endpoint: survival time, mean or median, dose: 6.25 mg/kg/injection, schedule: Q01DX Z (ip), vehicle: carboxymethylcellulose (CMC) 115 % of control | endpoint: survival time, mean or median, dose: 12.5 mg/kg/injection, schedule: Q01DX Z (ip), vehicle: carboxymethylcellulose (CMC) 105 % of control | endpoint: survival time, mean or median, dose: 25.0 mg/kg/injection, schedule: Q01DX Z (ip), vehicle: carboxymethylcellulose (CMC) 112 % of control | endpoint: survival time, mean or median, dose: 36.0 mg/kg/injection, schedule: Q01DX010 (ip), vehicle: saline 100 % of control | endpoint: survival time, mean or median, dose: 50.0 mg/kg/injection, schedule: Q01DX Z (ip), vehicle: carboxymethylcellulose (CMC) 123 % of control and 98 % of control | endpoint: survival time, mean or median, dose: 54.0 mg/kg/injection, schedule: Q01DX010 (ip), vehicle: saline 111 % of control | endpoint: survival time, mean or median, dose: 100.0 mg/kg/injection, schedule: Q01DX Z (ip), vehicle: carboxymethylcellulose (CMC) 117 % of control | endpoint: survival time, mean or median, dose: 120.0 mg/kg/injection, schedule: Q01DX010 (ip), vehicle: saline 88 % of control | endpoint: survival time, mean or median, dose: 200.0 mg/kg/injection, schedule: Q01DX Z (ip), vehicle: carboxymethylcellulose (CMC) 92 % of control

O=CCC(O)C(O)C(O)CO (stereo not given)
inactive: endpoint: survival time, mean or median, dose: 16.0 mg/kg/injection, schedule: Q01DX Z (ip), vehicle: carboxymethylcellulose (CMC) 120 % of control | endpoint: survival time, mean or median, dose: 62.5 mg/kg/injection, schedule: Q01DX Z (ip), vehicle: carboxymethylcellulose (CMC) 113 % of control | [1] 120 % of control | endpoint: survival time, mean or median, dose: 250.0 mg/kg/injection, schedule: Q01DX010 (ip), vehicle: saline 90 % of control and 100 % of control | [6] 100 % of control

N=[N+]=CC(=O)OCC(N)C(=O)O (stereo not given)
inactive: endpoint: survival time, mean or median, dose: 3.13 mg/kg/injection, schedule: Q01DX010 (ip), vehicle: saline 94 % of control | endpoint: survival time, mean or median, dose: 6.25 mg/kg/injection, schedule: Q01DX010 (ip), vehicle: saline 105 % of control | endpoint: survival time, mean or median, dose: 12.5 mg/kg/injection, schedule: Q01DX010 (ip), vehicle: saline 100 % of control

CC1CCOS(=O)O1 (stereo not given)
inactive: [3] 88 % of control | [4] 100 % of control | [5] 100 % of control

O=C(Nc1ccc(C2=NCCN2)cc1)c1ccc(C(=O)Nc2ccc(C3=NCCN3)cc2)c(Cl)c1
active: endpoint: survival time, mean or median, dose: 8.0 mg/kg/injection, schedule: Q01DX010 (ip), vehicle: other 160 % of control and 183 % of control | endpoint: survival time, mean or median, dose: 16.0 mg/kg/injection, schedule: Q01DX010 (ip), vehicle: other 232 % of control and 262 % of control | endpoint: survival time, mean or median, dose: 30.0 mg/kg/injection, schedule: Q01DX Z (ip), vehicle: water 154 % of control
inactive: endpoint: survival time, mean or median, dose: 2.0 mg/kg/injection, schedule: Q01DX010 (ip), vehicle: other 108 % of control and 120 % of control | endpoint: survival time, mean or median, dose: 7.5 mg/kg/injection, schedule: Q01DX Z (ip), vehicle: water 107 % of control
120 % of control and 296 % of control: endpoint: survival time, mean or median, dose: 32.0 mg/kg/injection, schedule: Q01DX010 (ip), vehicle: other

CC[n+]1c(-c2ccccc2)c2cc(N)ccc2c2ccc(N)cc21
inactive: [5] 100 % of control
active: endpoint: survival time, mean or median, dose: 2.5 mg/kg/injection, schedule: Q01DX010 (ip), vehicle: saline 152 % of control | [2] 170 % of control and 228 % of control | [3] 223 % of control and 285 % of control | [4] 158 % of control and 185 % of control

Nc1c(Br)cc2c(c1Br)Cc1cc([N+](=O)[O-])ccc1-2
inactive: endpoint: survival time, mean or median, dose: 15.6 mg/kg/injection, schedule: Q01DX010 (ip), vehicle: saline 122 % of control | endpoint: survival time, mean or median, dose: 31.3 mg/kg/injection, schedule: Q01DX010 (ip), vehicle: saline 116 % of control | endpoint: survival time, mean or median, dose: 62.5 mg/kg/injection, schedule: Q01DX010 (ip), vehicle: saline 111 % of control and 116 % of control | endpoint: survival time, mean or median, dose: 125.0 mg/kg/injection, schedule: Q01DX010 (ip), vehicle: saline 116 % of control and 94 % of control | [6] 88 % of control

CN(Cc1cnc2nc(N)nc(N)c2n1)c1ccc(C(=O)N[C@@H](CCC(=O)O)C(=O)O)cc1
inactive: endpoint: median survival time, dose: 3.0 mg/kg/injection, schedule: Q01DX009 (ip), vehicle: sodium bicarbonate 91 % of control | endpoint: survival time, mean or median, dose: 0.31 mg/kg/injection, schedule: Q01DX Z (ip), vehicle: other 123 % of control | endpoint: survival time, mean or median, dose: 5.0 mg/kg/injection, schedule: Q01DX Z (ip), vehicle: other 116 % of control
active: endpoint: median survival time, dose: 0.38 mg/kg/injection, schedule: Q01DX009 (ip), vehicle: sodium bicarbonate 183 % of control | endpoint: median survival time, dose: 0.75 mg/kg/injection, schedule: Q01DX009 (ip), vehicle: sodium bicarbonate 191 % of control | endpoint: median survival time, dose: 1.5 mg/kg/injection, schedule: Q01DX009 (ip), vehicle: sodium bicarbonate 220 % of control | endpoint: median survival time, dose: 6.0 mg/kg/injection, schedule: Q01DX009 (ip), vehicle: sodium bicarbonate 154 % of control | endpoint: survival time, mean or median, dose: 0.38 mg/kg/injection, schedule: Q01DX010 (ip), vehicle: other 162 % of control and 167 % of control and 193 % of control | endpoint: survival time, mean or median, dose: 0.62 mg/kg/injection, schedule: Q01DX Z (ip), vehicle: other 189 % of control and 222 % of control | endpoint: survival time, mean or median, dose: 0.75 mg/kg/injection, schedule: Q01DX010 (ip), vehicle: other 176 % of control and 228 % of control and 235 % of control | endpoint: survival time, mean or median, dose: 1.25 mg/kg/injection, schedule: Q01DX Z (ip), vehicle: other 219 % of control and 256 % of control and 261 % of control | endpoint: survival time, mean or median, dose: 1.5 mg/kg/injection, schedule: Q01DX010 (ip), vehicle: other 229 % of control and 230 % of control (2×) | endpoint: survival time, mean or median, dose: 1.5 mg/kg/injection, schedule: Q01DX Z (ip), vehicle: other 158 % of control | endpoint: survival time, mean or median, dose: 2.5 mg/kg/injection, schedule: Q01DX Z (ip), vehicle: other 205 % of control and 244 % of control | endpoint: survival time, mean or median, dose: 3.0 mg/kg/injection, schedule: Q01DX010 (ip), vehicle: other 186 % of control

C=C1C[C@H]2[C@@H]3C=C(C)C4=CC(=O)CC[C@]4(C)[C@H]3CC[C@]2(C)[C@@]1(OC(C)=O)C(C)=O
inactive: endpoint: survival time, mean or median, dose: 62.5 mg/kg/injection, schedule: Q01DX010 (sc), vehicle: steriod suspending solution 88 % of control | endpoint: survival time, mean or median, dose: 125.0 mg/kg/injection, schedule: Q01DX010 (sc), vehicle: steriod suspending solution 94 % of control
